Test results from ChEMBL document CHEMBL3751732 (Bioorg Med Chem Lett, 2016).
The source made the active and inactive calls. The calls are words filed in the database; no cut-off is given here.

Tests used:
[1] = molecular target: Histamine H1 receptor (Homo sapiens, UniProt P35367); assay: Displacement of [3H]mepyramine from human histamine 1 receptor expressed in Sf9 cell membranes by liquid scintillation counting
[2] = molecular target: T1, Histamine H4 receptor (Homo sapiens, UniProt Q9H3N8); assay: Displacement of [3H]histamine from human histamine 4 receptor expressed in Sf9 cell membranes by liquid scintillation counting
[3] = molecular target: Histamine H2 receptor (Homo sapiens, UniProt P25021); assay: Displacement of [3H]UR-DE257 from human histamine 2 receptor expressed in Sf9 cell membranes by liquid scintillation counting
Sequence of Histamine H2 receptor (P25021 whole entry): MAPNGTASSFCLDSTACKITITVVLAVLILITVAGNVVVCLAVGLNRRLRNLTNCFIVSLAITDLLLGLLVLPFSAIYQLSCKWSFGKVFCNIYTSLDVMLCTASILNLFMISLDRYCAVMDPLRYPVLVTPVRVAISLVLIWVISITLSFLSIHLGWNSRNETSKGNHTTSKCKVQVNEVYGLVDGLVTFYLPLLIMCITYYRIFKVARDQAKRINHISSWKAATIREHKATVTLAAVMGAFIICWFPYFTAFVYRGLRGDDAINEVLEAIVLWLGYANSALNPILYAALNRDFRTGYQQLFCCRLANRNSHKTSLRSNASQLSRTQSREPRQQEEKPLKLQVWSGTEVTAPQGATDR

[4] = molecular target: Histamine H3 receptor (Homo sapiens, UniProt Q9Y5N1); assay: Displacement of [3H]Nalpha-methylhistamine from human histamine 3 receptor expressed in Sf9 cell membranes by liquid scintillation counting
Sequence of Histamine H3 receptor (Q9Y5N1 whole entry): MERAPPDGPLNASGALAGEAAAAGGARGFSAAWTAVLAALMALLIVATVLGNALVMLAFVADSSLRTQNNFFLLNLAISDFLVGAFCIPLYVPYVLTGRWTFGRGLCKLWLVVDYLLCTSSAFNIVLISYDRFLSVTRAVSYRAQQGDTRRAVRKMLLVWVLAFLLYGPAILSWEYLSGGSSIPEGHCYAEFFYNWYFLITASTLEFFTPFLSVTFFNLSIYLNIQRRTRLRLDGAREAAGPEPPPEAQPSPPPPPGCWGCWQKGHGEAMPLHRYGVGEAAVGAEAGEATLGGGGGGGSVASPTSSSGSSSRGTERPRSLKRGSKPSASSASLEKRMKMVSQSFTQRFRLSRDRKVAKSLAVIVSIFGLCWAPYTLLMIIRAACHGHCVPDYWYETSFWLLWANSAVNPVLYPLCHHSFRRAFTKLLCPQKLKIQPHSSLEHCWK

[5] = molecular target: T1, Histamine H4 receptor; assay: Antagonist activity at human histamine 4 receptor expressed in Sf9 cell membranes co-expressing Galphai2 and Gbeta1gamma2 assessed as [35S]GTPgammaS binding by scintillation counting; assay type: functional
[6] = molecular target: T1, Histamine H4 receptor; assay: Antagonist activity at human histamine 4 receptor expressed in Sf9 cell membranes co-expressing Galphai2 and Gbeta1gamma2 assessed as [35S]GTPgammaS binding by scintillation counting relative to control histamine; assay type: functional

Sequence of Histamine H1 receptor (P35367 whole entry): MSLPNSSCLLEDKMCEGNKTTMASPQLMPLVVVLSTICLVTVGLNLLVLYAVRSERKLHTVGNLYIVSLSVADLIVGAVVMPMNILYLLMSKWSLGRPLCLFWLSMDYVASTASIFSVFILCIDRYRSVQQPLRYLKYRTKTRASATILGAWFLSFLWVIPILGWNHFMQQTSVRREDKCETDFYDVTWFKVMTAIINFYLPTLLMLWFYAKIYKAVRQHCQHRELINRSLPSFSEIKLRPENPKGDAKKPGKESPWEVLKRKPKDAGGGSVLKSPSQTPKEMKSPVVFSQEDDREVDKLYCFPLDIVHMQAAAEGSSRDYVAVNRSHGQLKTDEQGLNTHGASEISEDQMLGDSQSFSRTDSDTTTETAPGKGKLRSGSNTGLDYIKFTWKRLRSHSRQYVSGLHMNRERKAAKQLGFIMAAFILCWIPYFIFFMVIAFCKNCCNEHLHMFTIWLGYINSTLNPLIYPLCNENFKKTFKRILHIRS

SMILES | Ki [1] | Ki [2] | also measured
CN1CCN(c2nc(NCc3ccccc3)cc(-c3ccccc3)n2)CC1 | 2.51 µM | 31.6 µM | 
CN1CCN(c2cc(-c3ccccc3)nc(NCc3ccccc3)n2)CC1 | 1.12 µM | 0.955 µM | Ki [3]: 10.2 µM; Ki [4]: 2.51 µM; EC50 [5]: 0.912 µM; Ratio [6]: -1.27
COc1ccc(CNc2cc(-c3ccccc3)nc(N3CCN(C)CC3)n2)cc1 | 4.17 µM | 72.4 µM | 
COc1ccc(CNc2cc(-c3ccccc3)nc(N(C)C)n2)cc1 |  |  | pKi [1]: inactive; pKi [2]: inactive
CN1CCN(c2nc(NCCc3ccccc3)cc(-c3ccccc3)n2)CC1 | 1.95 µM | 36.3 µM | 
CN1CCN(C2=Nc3ccc(Cl)cc3Oc3ccccc32)CC1 | 0.00832 µM |  | 
CN1CCN(c2nc3c(c(N4CCN(C)CC4)n2)-c2ccccc2CC3)CC1 | 1.17 µM | 7.76 µM | 
CN1CCN(c2cc(-c3ccccc3)nc(NCCc3ccccc3)n2)CC1 | 3.31 µM | 9.77 µM | 
CN(C)c1nc(NCCc2ccccc2)cc(-c2ccccc2)n1 |  |  | pKi [1]: inactive; pKi [2]: inactive
CN1CCN(c2nc(NCc3cccs3)c3cc(Cl)ccc3n2)CC1 | 0.55 µM |  | 

Continued, in another order:

Ki [1] | Ki [2] | SMILES | also measured
1.86 µM | 6.76 µM | CN1CCN(c2nc(NCCc3ccccc3)nc3c2-c2ccccc2CC3)CC1 | 
0.891 µM | 14.5 µM | CN1CCN(c2nc(NCc3ccccc3)c3c(n2)-c2ccccc2CC3)CC1 | 
2.09 µM | 1.58 µM | CN1CCN(c2nc(NCc3ccccc3)nc3c2CCc2ccccc2-3)CC1 | Ki [3]: 6.92 µM; Ki [4]: 6.03 µM; EC50 [5]: 0.933 µM; Ratio [6]: -1.01
5.75 µM | 4.27 µM | COc1ccc(CNc2nc3c(c(N4CCN(C)CC4)n2)CCc2ccccc2-3)cc1 | 
9.12 µM | 0.186 µM | CN1CCN(c2nc(N)nc3c2CCc2ccccc2-3)CC1 | Ki [3]: 31.6 µM; Ki [4]: 9.77 µM; EC50 [5]: 0.295 µM; Ratio [6]: -0.47
5.25 µM | 1.74 µM | COc1ccc(CNc2nc(-c3ccccc3)cc(N3CCN(C)CC3)n2)cc1 | 
1.95 µM | 11 µM | CN1CCN(c2nc(NCc3ccc(F)cc3)nc3c2CCc2ccccc2-3)CC1 | 
1.91 µM | 26.3 µM | CN1CCN(c2nc(NCc3ccccc3)nc3c2-c2ccccc2CC3)CC1 | 
1.07 µM | 13.8 µM | COc1ccc(CNc2nc3c(c(N4CCN(C)CC4)n2)-c2ccccc2CC3)cc1 | 
6.31 µM | 19.5 µM | COc1ccc(CNc2nc(N3CCN(C)CC3)nc3c2CCc2ccccc2-3)cc1-c1ccc(Cl)cc1 | 
8.13 µM | 15.1 µM | CN1CCN(c2nc(NCCc3ccccc3)c3c(n2)-c2ccccc2CC3)CC1 | 
9.33 µM | 9.12 µM | CN1CCN(c2nc(NCCc3ccccc3)nc3c2CCc2ccccc2-3)CC1 | 
3.39 µM | 20 µM | Cc1ccc(CNc2nc3c(c(N4CCN(C)CC4)n2)CCc2ccccc2-3)cc1 | 
